The source of these data is patent publication US5318972A, “Pyrimidine nucleoside derivative and antiviral agent containing the derivative as active ingredient” (priority 1990, dated 1994).

For one data set, the system named is host cells. To be noted: background, clinical treatment of HIV-infection; cited from earlier work.
The subject of another data set is HIV. Put plainly: Inhibitory activity for HIV infection (prevention of death of HIV-infected MT-4 cells). In kind it is cell-based. To be noted: Human immunodeficiency virus 1, MT4, 120 h, 5 days incubation at 37° C., concentration preventing death of 50% of HIV-infected MT-4 cells. How it is done:
(§1) In RPMI 1640 DM culture medium containing 20 mM of Hepes buffer solution, 10% fetal bovine serum and 20 µg/ml of gentamycin, 3×10^4 MT-4 cells (human T cell clone which is destroyed by the infection of HIV) were infected with HIV in an amount of 100 times as large as expected to cause 50% infection of the cells. Immediately thereafter, a predetermined amount of sample was added to the culture medium using 50 mg/ml sample solutions in dimethyl sulfoxide and the cells were cultured at 37° C.
(§2) After 5 days of incubation, the number of existing cells was counted to determine the concentration of the compound required for preventing the death of 50% of the MT-4 cells. Separately, MT-4 cells were cultured in the same way as above except that they were not infected with HIV to determine the concentration of the compound at which 50% of the MT-4 cells were destroyed.

Data set [1] can be described thus: Cytotoxicity to uninfected MT-4 cells. The format is cell-based. The following applies: human, 5 days incubation at 37° C., concentration at which 50% of cells were destroyed, read-out: 50% cytotoxic concentration to MT-4 cells. How it is done: as §1, §2

SMILES strings stand for the structures.

As to `Cc1cn([C@H]2C[C@H](N=[N+]=[N-])[C@@H](CO)O2)c(=O)[nH]c1=O` [3'-deoxy-3'-azidothymidine], the “toxicity in the host cells” value in the data set with host cells is reported as “considerable strong toxicity”. Take `CCc1c(Sc2ccccc2)n(COCCO)c(=S)[nH]c1=O` [Compound 1, 5-ethyl-1-[(2-hydroxyethoxy)methyl]-6-phenylthio-2-thiouracil]: in the data set with HIV, half-maximal inhibition (IC50) required 0.11 µM. The CC50 at 120 h in data set [1] came out at 148 µM.

For the compound `CCc1c(Sc2cc(C)cc(C)c2)n(COCCO)c(=O)[nH]c1=O` [Compound 2, 6-(3,5-dimethylphenylthio)-5-ethyl-1-[(2-hydroxyethoxy)methyl]uracil], the CC50 at 120 h in data set [1] was 149 µM. Regarding `CCc1c(Sc2cc(C)cc(C)c2)n(COCCO)c(=S)[nH]c1=O` [Compound 3, 6-(3,5-dimethylphenylthio)-5-ethyl-1-[(2-hydroxyethoxy)methyl]-2-thiouracil], the IC50 (as a rule, the concentration that gives 50% inhibition) in the data set with HIV amounted to 0.0078 µM. Also, the CC50 at 120 h in data set [1] came out at 227 µM. The matching figures for `CCc1c(Sc2cc(Cl)cc(Cl)c2)n(COCCO)c(=O)[nH]c1=O` [Compound 6, 6-(3,5-dichlorophenylthio)-5-ethyl-1-[(2-hydroxyethoxy)methyl]uracil]: 0.014 µM and 51 µM. In turn, `CCc1c(Sc2cc(Cl)cc(Cl)c2)n(COCCO)c(=S)[nH]c1=O` [Compound 7, 6-(3,5-dichlorophenylthio)-5-ethyl-1-[(2-hydroxyethoxy)methyl]-2-thiouracil] displayed an IC50 in the data set on HIV of 0.043 µM. In data set [1], the CC50 at 120 h came to 64 µM. As to `CCc1c(Cc2ccccc2)n(COCCO)c(=O)[nH]c1=O` [Compound 10, 6-benzyl-5-ethyl-1-[(2-hydroxyethoxy)methyl]uracil], inhibition in the data set on HIV was half-maximal at 0.35 µM (IC50). In addition, in data set [1], the CC50 at 120 h came to 391 µM. On to `CCc1c(Cc2cc(C)cc(C)c2)n(COCCO)c(=O)[nH]c1=O` [Compound 12, 6-(3,5-dimethylbenzyl)-5-ethyl-1-[(2-hydroxyethoxy)methyl]uracil], for which the IC50 in the data set on HIV came out at 0.013 µM. Further, the CC50 at 120 h in data set [1] came to 280 µM. `CC(C)c1c(Sc2ccccc2)n(COCCO)c(=S)[nH]c1=O` [Compound 20, 1-[(2-hydroxyethoxy)methyl]-6-phenylthio-5-isopropyl-2-thiouracil] gave an IC50 with HIV of 0.059 µM. Moreover, the CC50 at 120 h in data set [1] came out at 400 µM. With `Cc1cc(C)cc(Sc2c(C(C)C)c(=O)[nH]c(=O)n2COCCO)c1` [Compound 21, 6-(3,5-dimethylphenylthio)-1-[(2-hydroxyethoxy)methyl]-5-isopropyluracil], the CC50 at 120 h in data set [1] is 128 µM. `Cc1cc(C)cc(Sc2c(C(C)C)c(=O)[nH]c(=S)n2COCCO)c1` [Compound 22, 6-(3,5-dimethylphenylthio)-1-[(2-hydroxyethoxy)methyl]-5-isopropyl-2-thiouracil]: in the data set with HIV, the IC50 amounted to 0.0045 µM. For the same compound, the CC50 at 120 h in data set [1] worked out at 48 µM. Compound `Cc1cc(C)cc(Cc2c(C(C)C)c(=O)[nH]c(=O)n2COCCO)c1` [Compound 31, 6-(3,5-dimethylbenzyl)-1-[(2-hydroxyethoxy)methyl]-5-isopropyluracil] displayed an IC50 with HIV of 0.0066 µM. Further, the CC50 at 120 h in data set [1] came out at 318 µM. The matching figures for `CCc1c(Sc2ccccc2)n(COCCO)c(=O)[nH]c1=O` [Compound 39, 5-ethyl-1-[(2-hydroxyethoxy)methyl]-6-(phenylthio)uracil]: 0.077 µM and 221 µM. The matching figures for `CC(C)c1c(Sc2ccccc2)n(COCCO)c(=O)[nH]c1=O` [Compound 40, 1-[(2-hydroxyethoxy)methyl]-6-phenylthio-5-isopropyl-uracil]: 0.063 µM and 231 µM.

For `CCCc1c(Sc2ccccc2)n(COCCO)c(=S)[nH]c1=O` [compound 3, reference compound], the IC50 with HIV came to 3.4 µM. The CC50 at 120 h in data set [1] turned out to be 224 µM. The matching figures for `CCCc1c(Sc2ccccc2)n(COCCO)c(=O)[nH]c1=O` [compound 4, reference compound]: 13 µM and 282 µM.
